Counter-ions that a name gives are not always drawn.
Experiments:
[1] = tested on: excised aortic segment (Ca++ induced vascular smooth muscle contraction); assay: Assay F: Calcium Antagonist Effects; conditions: K+ (100 mM) depolarized aortic segment, 1 hr incubation with test compound at 10^-6M
Description: Assay F: Calcium Antagonist Effects
An excised aortic segment was mounted in a tissue bath containing modified Krebs solution. After depolarization of the tissue with K^+ (100 mM), Ca^++, in cumulative concentrations of 10^−3M, 3.2×10^−3M and 10^−2M, was injected into the bath to produce vascular smooth muscle contraction. The developed tension (g) was measured and control dose-response values are obtained. After 1 hr incubation with a test compound at 10^−6M concentration, the same doses of Ca^++ are repeated. The log dose-response curves of control and after treatment were analyzed by linear regression.

[2] = tested on: human peripheral blood mononuclear cells (PMNC) cocultured with mitomycin-C inactivated Raji stimulator cell line; assay: Assay C: One-Way Mixed Lymphocyte Reaction (Human); format: cell-based; conditions: one-way MLR, human PMNC vs Raji, 120 hours, 3H-thymidine
Source text: Assay C: One-Way Mixed Lymphocyte Reaction (Human)
The mixed lymphocyte reaction (MLR) is an assay that measures T-cell blast cell transformation and mitosis which occurs when lymphocytes from different major and minor histocompatibility complex (MHC) haplotypes are cocultured. This response is considered a “one-way MLR” when stimulator cells are made unresponsive by inhibition of DNA synthesis (treatment with mitomycin-C or gamma-irradiation) prior to coculture with responder cells. This assay can be used as an indicator of the cellular immunomodulation mechanisms involved in transplant rejection. In this assay, human peripheral blood mononuclear cells(PMNC) were used as the responder cell population and were isolated from normal donor blood as follows: Blood samples were collected in LeucoPREP™ tubes (Becton Dickinson, Lincoln Park, N.J.) and the mononuclear cell preparation was obtained by following the manufacturers procedures. Isolated mononuclear cells were co-incubated at 6×10^4 cells/well with a stimulator cell line at 2×10^4 cells/well in RPMI 1640 medium containing 5% fetal bovine serum and 2-mercaptoethanol (40 μM). The stimulator cell line, Raji, which was derived from a human Burkitt lymphoma (American Type Culture Collection, Rockville Md.) was previously inactivated by mitomycin-C treatment (Sigma, St. Louis Mo., 25 μg/ml, 370 for 30 minutes). After repeated washings of mitomycin-C from the stimulator cell line, cocultures were incubated in 96 well microtiter plates at 37° C., in 95% air/5% CO2 atmosphere for 120 hours in the presence or absence of test compounds (0.1-25 μM). Inhibition of proliferation was measured by reduced incorporation of ^3H-thymidine (0.5 μCi/well, added during the last 24 hours of the assay). The IC50 values for the immunosuppressant compounds were calculated by four parameter logistic regression analysis of the results [Delean et al, Id.]

[3] = tested on: PHA stimulated human donor peripheral blood mononuclear cells (PMNC); assay: Assay B: Suppression of Human Mitogen Stimulation; format: cell-based; conditions: inhibition of PHA stimulated proliferation of human PMNC, 96 hrs, 3H-thymidine
Description: Assay B: Suppression of Human Mitogen Stimulation Assay
Normal human donor peripheral blood mononuclear cells (PMNC) were isolated by density centrifugation using Ficoll-Paque(Pharacia LKB, Uppsala Sweden, 350 RCF 45 minutes). Cells were washed and incubated at 37° C. in 95%air/5% CO2 atmosphere in 96 well microtiter plates (2×10^5 cells/well) for 96hrs with RPMI 1640 medium containing 5% fetal bovine serum and 2-mercaptoethanol ([…]), Phytohemagglutinin (Difco, Detroit, MI 10 μg/ml) in the presence or absence of test compounds. Inhibition of PHA stimulated proliferation was measured by reduced incorporation of ^3H-thymidine (0.5 μCi/well, added during the last 24 hours of the assay). When possible, the IC50 values for active immunosuppressant compounds were calculated by four parameter logistic regression analysis of the results [Delean et al, DE ].

[4] = tested on: ConA-stimulated spleen cells from female Balb/c mice; assay: Assay A: Suppression of Mitogen-Stimulated Proliferation (Murine); format: cell-based, mouse; conditions: inhibition of ConA-stimulated proliferation of murine spleen cells, 5 days, MTT
Source text: Assay A: Suppression of Mitogen-Stimulated Proliferation (Murine)
It is known that lymphocyte activation can be polyclonally stimulated by plant lectins and other mitogens that induce blast transformation and mitosis. Certain mitogens like Concanavalin A (ConA), preferentially activate T-lymphocytes. Exposure to ConA results in polyclonal activation of T-cells and can be used as an in vitro index for general immunomodulation of pan T-cell activity. In this assay spleen cells harvested from female Balb/c mice were incubated at 37° C., in 95% air/5% CO2 atmosphere in 96 well microtiter plates (10^5 cells/well) for 5 days with Iscove's modified Dulbecco's medium [25 mM HEPES 2 mM L-glutamine, 5% fetal bovine serum and 2-mercaptoethanol (40 μM)] (100 μl/well), concanavalin A (ConA) alone (Sigma, St. Louis, Mo.; 1.0 μg/ml) or ConA in the presence of test compounds (0.001-25 μM). Inhibition of ConA-stimulated proliferation was measured by calorimetric indicator of growth and proliferation, MTT (3-(4,5-dimethylthiazol-2-yl)-2 diphenyl tetrazolium bromide; (100 μl/well, 1 mg/ml) Sigma) [Mosmann, T., J. of Immunological Methods, 65, 55-63, […]]. After four hours, plates were centrifuged (1200 rpm) media supernatants aspirated and dye loaded cells were solubilized in isopropanol (150 μl/well). The absorbance was measured on an ELISA plate reader with a test wavelength of 570 nm and a reference of 630 nm. The IC50 values for active immunosuppressant compounds were calculated by four parameter logistic regression analysis of the results [Delean et al, Am. J. Physiol., 2, 397 (1978)].

[5] = tested on: anesthetized spontaneously hypertensive rat; assay: Assay H: Blood Pressure Reducing Effects; format: in vivo; conditions: intragastrically at 10^-3M, readings 1, 2, 3 and 4 hours after administration
Description: Assay H: Blood Pressure Reducing Effects
Systemic blood pressure effects were assessed in vivo in an anesthetized spontaneously hypertensive rat. The test compound was administered intragastrically at 10^−[…]. Initial mean arterial blood pressure (MAP) was measured directly via a previously implanted arterial catheter immediately before administration of the compound. Blood pressure readings were made 1, 2, 3, and 4 hours after administration of the test compound.

Human mononuclear cells = assay: Assay D: Calcium Flux Assay (human mononuclear cells); format: cell-based; conditions: at 2×, 5× and 10× the IC50 values of Assay A
Source text: Assay D: Calcium Flux Assay
One of the earliest requirements of lymphocyte activation involves the rapid mobilization of intracellular calcium and the sustained influx of extracellular calcium. These cellular responses to lymphocyte activators can be measured by calcium-binding fluorescent dyes such as Indo-1 [P. S. Rabinovitch, et al J. Immunol, 137, 952 (1986)]. The rapid and sustained changes in intracellular calcium can be used to discriminate classes of immunomodulatory compounds which alter early events in lymphocyte activation. Human mononuclear cells or the human Jurkat T-cell line (ATCC, Rockville Md.) were loaded with the calcium-sensitive dye, Indo-1 (5 μM), washed and incubated for 2-5 minutes in the presence or absence of test compounds. Calcium flux was initiated in lymphocytes by the binding of crosslinked antibody to the T cell receptor(αCD3 at 250 ng/ml followed by goat-anti-mouse IgG) or the lectin Phytohemagglutinin (PHA, 100 ug/ml). Jurkat cell activation was initiated by the addition of purified antibody to the T cell receptor (αCD3, 250 ng/ml). Subsequent changes in the concentration if intracellular calcium was monitored over time (6 min) by flow cytometry (Epics 753, Coulter Electronics, Hialeah Fla.) to determine modulation of the initial calcium-mediated activation of the cells [P. S. Rabinovitch, et al, E]. […]

adult male SHR = assay: Assay G: Calcium Channel Blocker Effects (vascular resistance, microspheres); format: in vivo, rat; conditions: I.V. bolus of 1.0 mg/kg, Control (DMSO) 240
Description: Assay G: Calcium Channel Blocker Effects
Under ether anesthesia, the jugular vein, femoral artery and left ventricle of adult male SHR were cannulated. After a 3-5 hour recovery period, animals ere treated with either test compound or placebo. Ten minutes was allowed for steady state conditions to be reached. Arterial pressure was then monitored via the femoral cannula. Immediately after this measurement, the reference blood sample was taken and radioactively-labeled microspheres were injected into the left ventricle. Rats were then sacrificed; organs were removed, weighed and counted. Cardiac output was computed. Percent cardiac output distribution per gram tissue, flow per gram tissue, and resistance times gram tissue were calculated fro the following organs: brain, heart, kidneys, splanchnic organs (liver plus pancreas, spleen and G. I. tract), skeletal muscle and skill. The tested compound was administered as an I.V. bolus of 1.0 mg/kg. Differences in mean values between treatment and control groups were analyzed by a one-way one variable analysis and least significant difference test.

Compound	IC50 [2]	IC50 ([3]; Homo sapiens, PBMC)	IC50 ([4]; Mus musculus, 120 h)	other results
COC(=O)c1cc(OC)c(OC)cc1CCN(C)CCCC(C#N)(c1ccc(OC)c(OC)c1)C(C)C (stereo not shown) [Example 1, methyl 2-[2-[[4-cyano-4-(3,4-dimethoxyphenyl)-5-methylhexyl]methylamino]ethyl]-4,5-dimethoxybenzoate]	–	–	–	pA2 [1]: 6.81
COC(=O)c1cc(OC)c(OC)cc1CCN(C)CCCC(C#N)(c1ccc(OC)c(OC)c1)C(C)C (stereo not shown) [Example 3, methyl 2-[2-[[4-cyano-4-(3,4-dimethoxyphenyl)-5-methylhexyl]methylamino]ethyl]-4,5-dimethoxybenzoate, 2,3-dihydroxybutanedioic acid salt]	–	–	–	IC50 [3]: 5.3 µM; IC50 [4]: 8.7 µM
COc1ccc(C(C#N)(CCCN(C)CCc2cc(OC)c(OC)cc2C)C(C)C)cc1OC (stereo not drawn) [Example 6, α-[3-[[2-(4,5-dimethoxy-2-methylphenyl)ethyl]methylamino]propyl]-3,4-dimethoxy-α-(1-methylethyl)benzeneacetonitrile, 2,3-dihydroxybutanedioic acid salt]	–	–	–	vascular resistance in the brain (adult male SHR): 149 mm Hg min. g/ml
COc1ccc(C(C#N)(CCCN(C)CCc2cc(OC)c(OC)cc2/C=C/C(C)=O)C(C)C)cc1OC (stereo not drawn) [Example 7, α-[3-[[2-[4.5-dimethoxy-2-(3-oxo-1E-butenyl)phenyl]ethyl]methylamino]-propyl]-3,4-dimethoxy-α-(1-methylethyl)benzeneacetonitrile]	15.5 µM	–	7.9 µM	–

Second part, led by results:

IC50 [2]	Compound	IC50 ([3]; Homo sapiens, PBMC)	IC50 ([4]; Mus musculus, 120 h)	other results
4.3 µM	COC(=O)c1cc(OC)c(OC)cc1CCN(C)CCCC(C#N)(c1ccc(OC)c(OC)c1)C(C)C (stereo not shown) [Example 2, methyl 2-[2-[[4-cyano-4-(3,4-dimethoxyphenyl)-5-methylhexyl]methylamino]ethyl]-4,5-dimethoxybenzoate, 2-hydroxy-1,2,3-propanetricarboxylic acid salt]	5.4 µM	7.1 µM	–
8.9 µM	COc1ccc(C(C#N)(CCCN(C)CCc2cc(OC)c(OC)cc2C(=O)NC(C)(C)C)C(C)C)cc1OC (stereo not shown) [Example 4, 2-[2-[[4-cyano-4-(3,4-dimethoxyphenyl)-5-methylhexyl]methylamino]ethyl]-N-(1,1-dimethylethyl)-4,5-dimethoxybenzamide, 2-hydroxy-1,2,3-propanetricarboxylic acid salt]	9.9 µM	13.3 µM	Decrease in MAP [5]: 18 mm Hg; pA2 [1]: 6.56
20.2 µM	CCNC(=O)c1cc(OC)c(OC)cc1CCN(C)CCCC(C#N)(c1ccc(OC)c(OC)c1)C(C)C (stereo not shown) [Example 5, 2-[2-[[4-cyano-4-(3,4-dimethoxyphenyl)-5-methylhexyl]methylamino]ethyl]-N-ethyl-4,5-dimethoxybenzamide, 2,3-dihydroxybutanedioic acid salt]	> 25 µM	> 25 µM	inhibition of calcium flux (Human mononuclear cells): inhibited calcium flux in a dose dependent manner; Decrease in MAP [5]: 20 mm Hg

— patent US6451852B2, “Phenylacetonitrilealkylaminoalkyl-ortho-substituted aryl compounds as immunosuppressives” (G. D. Searle & Co., priority 1989, dated 2002)
